Experimental data as given in patent publication US20230310428A1, “EGFR INHIBITOR AND PREPARATION METHOD AND USE THEREOF” (HONGYUN BIOTECH CO., LTD., priority 2020, published 2023).

Key:
Experiment in all cases: Growth inhibitory activity of compounds on BaF3 cell lines stably transfected with kinase (MTS, 48 h)
Format in all cases: cell-based
[1] = biological target: T1, various mutants of kinase EGFR (BaF3 cell lines stably transfected with kinase) (Homo sapiens, UniProt P00533); details: BaF3 cells stably transfected with EGFR Δ19Del, read-out: IC50, growth inhibition, Δ19Del
T1 construct: other: BaF3 cells stably transfected with EGFR Δ19Del; MTS, 48 h; other: BaF3 cell line stably transfected with EGFR Δ19Del
Procedure: (§1) The activity of compounds against various mutants of kinase EGFR was evaluated by their effect of inhibiting growth of BaF3 cell lines stably transfected with kinase. The specific test method was given as follows:
(§2) 1) Culture medium: DMEM (Dulbecco’s modified eagle medium) or RPMI 1640 (containing 10% fetal bovine serum, 100 µg/mL ampicillin, 100 µg/mL streptomycin).
(§3) 2) Reagent: MTS reaction solution (containing 2 mg/mL of MTS [3-(4,5-dimethylthiazol-2-yl)-5-(3-carboxymethoxyphenyl)-2-(4-sulfophenyl)-2H-tetrazoliu m, inner Salt]; 100 µg/mL of PES ([…])).
(§4) 3) Compound test: cells were incubated into a 96-well culture plate, the volume of cytosol was 90 µL, and then 10 µL of the compound at each gradient concentration was added. That is, the highest concentration was 10 µM, which was diluted stepwise by ⅓, and 8 concentration points were set in total; 0.1% DMSO (dimethyl sulfoxide) was contained in the system. The cell plate with uniformly mixed compound was cultured in a cell culture incubator (37° C.; 5% CO2) for 48 h, then 20 µL of MTS reaction solution was added, uniformly mixed and incubated in the cell culture incubator (37° C.; 5% CO2) for 1-4 h. OD values at 490 nm were measured by a microplate reader (VARIOSKAN FLASH, Thermo). Two parallels were set in each group of experiments, with 0.1% (a final concentration) DMSO as a negative control, and a culture medium without cells and compounds as a blank control. The cell growth inhibition rate was calculated by the following formula: […]
(§5) 4) IC50 calculation: The semi-inhibitory concentration of the compounds acting on cells was calculated using GradPad Prism 5 software according to the measured cell growth inhibition rate.

[2] = biological target: T2, various mutants of kinase EGFR (BaF3 cell lines stably transfected with kinase) (Homo sapiens, UniProt P00533, L858R/T790M); details: BaF3 cells stably transfected with EGFR L858R/T790M, read-out: IC50, growth inhibition, L858R/T790M
T2 construct: expressed in transfected cells; host or cells: BaF3
Procedure: as §1, §2, §3, §4, §5

[3] = biological target: T3, various mutants of kinase EGFR (BaF3 cell lines stably transfected with kinase) (Homo sapiens, UniProt P00533, L858R); details: BaF3 cells stably transfected with EGFR L858R, read-out: IC50, growth inhibition, L858R
T3 construct: expressed in transfected cells; host or cells: BaF3
Procedure: as §1, §2, §3, §4, §5

[4] = biological target: T4, various mutants of kinase EGFR (BaF3 cell lines stably transfected with kinase) (Homo sapiens, UniProt P00533, T790M, form not given); details: BaF3 cells stably transfected with EGFR Δ19Del/T790M, read-out: IC50, growth inhibition, Δ19Del/T790M
T4 construct: other: BaF3 cells stably transfected with EGFR Δ19Del/T790M; MTS, 48 h; other: BaF3 cell line stably transfected with EGFR Δ19Del/T790M; MTS, 48
Procedure: as §1, §2, §3, §4, §5

[5] = biological target: T5, various mutants of kinase EGFR (BaF3 cell lines stably transfected with kinase) (Homo sapiens, UniProt P00533, C797S/L858R/T790M); details: BaF3 cells stably transfected with EGFR L858R/T790M/C797S, read-out: IC50, growth inhibition, L858R/T790M/C797S
T5 construct: expressed in transfected cells; host or cells: BaF3
Procedure: as §1, §2, §3, §4, §5

[6] = biological target: T6, various mutants of kinase EGFR (BaF3 cell lines stably transfected with kinase) (Homo sapiens, UniProt P00533, T790M/C797S, form not given); details: BaF3 cells stably transfected with EGFR Δ19Del/T790M/C797S, read-out: IC50, growth inhibition, Δ19Del/T790M/C797S
T6 construct: other: BaF3 cells stably transfected with EGFR Δ19Del/T790M/C797S; MTS, 48; other: BaF3 cell line stably transfected with EGFR Δ19Del/T790M/C7
Procedure: as §1, §2, §3, §4, §5

T6 sequence (P00533 with tags, fused parts or gaps DEL746-750/T790M/C797S, form open): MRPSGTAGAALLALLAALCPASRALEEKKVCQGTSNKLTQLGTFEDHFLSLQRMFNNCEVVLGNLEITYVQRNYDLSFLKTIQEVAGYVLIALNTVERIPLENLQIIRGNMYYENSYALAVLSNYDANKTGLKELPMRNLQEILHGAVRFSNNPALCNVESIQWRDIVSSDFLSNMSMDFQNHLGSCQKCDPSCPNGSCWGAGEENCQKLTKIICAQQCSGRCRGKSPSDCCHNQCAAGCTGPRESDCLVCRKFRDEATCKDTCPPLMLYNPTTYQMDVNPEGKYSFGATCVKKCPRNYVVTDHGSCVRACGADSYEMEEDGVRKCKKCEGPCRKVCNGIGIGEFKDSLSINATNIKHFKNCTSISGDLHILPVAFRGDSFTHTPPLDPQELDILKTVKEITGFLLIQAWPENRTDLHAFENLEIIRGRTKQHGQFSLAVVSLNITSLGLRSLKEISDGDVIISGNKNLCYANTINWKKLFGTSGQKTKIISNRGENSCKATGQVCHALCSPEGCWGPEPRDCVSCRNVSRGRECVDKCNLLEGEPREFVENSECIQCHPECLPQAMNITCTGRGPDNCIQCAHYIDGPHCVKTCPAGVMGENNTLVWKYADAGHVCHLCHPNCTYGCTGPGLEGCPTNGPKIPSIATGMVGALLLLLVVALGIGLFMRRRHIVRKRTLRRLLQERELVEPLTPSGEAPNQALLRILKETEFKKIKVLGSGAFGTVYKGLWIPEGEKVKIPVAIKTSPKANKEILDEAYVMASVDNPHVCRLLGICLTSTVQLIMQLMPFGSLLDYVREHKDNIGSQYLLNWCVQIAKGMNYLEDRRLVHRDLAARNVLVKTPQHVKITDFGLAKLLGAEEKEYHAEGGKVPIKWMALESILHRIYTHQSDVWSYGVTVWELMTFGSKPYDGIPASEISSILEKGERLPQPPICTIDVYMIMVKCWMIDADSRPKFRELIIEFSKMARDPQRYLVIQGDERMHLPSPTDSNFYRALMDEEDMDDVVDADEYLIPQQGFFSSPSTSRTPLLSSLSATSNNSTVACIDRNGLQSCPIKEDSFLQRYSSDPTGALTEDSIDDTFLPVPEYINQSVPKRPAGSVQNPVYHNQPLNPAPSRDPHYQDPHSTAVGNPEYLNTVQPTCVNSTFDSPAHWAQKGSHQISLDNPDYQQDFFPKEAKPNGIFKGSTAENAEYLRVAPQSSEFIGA
T5 sequence (P00533 25-1210 T790M/C797S/L858R): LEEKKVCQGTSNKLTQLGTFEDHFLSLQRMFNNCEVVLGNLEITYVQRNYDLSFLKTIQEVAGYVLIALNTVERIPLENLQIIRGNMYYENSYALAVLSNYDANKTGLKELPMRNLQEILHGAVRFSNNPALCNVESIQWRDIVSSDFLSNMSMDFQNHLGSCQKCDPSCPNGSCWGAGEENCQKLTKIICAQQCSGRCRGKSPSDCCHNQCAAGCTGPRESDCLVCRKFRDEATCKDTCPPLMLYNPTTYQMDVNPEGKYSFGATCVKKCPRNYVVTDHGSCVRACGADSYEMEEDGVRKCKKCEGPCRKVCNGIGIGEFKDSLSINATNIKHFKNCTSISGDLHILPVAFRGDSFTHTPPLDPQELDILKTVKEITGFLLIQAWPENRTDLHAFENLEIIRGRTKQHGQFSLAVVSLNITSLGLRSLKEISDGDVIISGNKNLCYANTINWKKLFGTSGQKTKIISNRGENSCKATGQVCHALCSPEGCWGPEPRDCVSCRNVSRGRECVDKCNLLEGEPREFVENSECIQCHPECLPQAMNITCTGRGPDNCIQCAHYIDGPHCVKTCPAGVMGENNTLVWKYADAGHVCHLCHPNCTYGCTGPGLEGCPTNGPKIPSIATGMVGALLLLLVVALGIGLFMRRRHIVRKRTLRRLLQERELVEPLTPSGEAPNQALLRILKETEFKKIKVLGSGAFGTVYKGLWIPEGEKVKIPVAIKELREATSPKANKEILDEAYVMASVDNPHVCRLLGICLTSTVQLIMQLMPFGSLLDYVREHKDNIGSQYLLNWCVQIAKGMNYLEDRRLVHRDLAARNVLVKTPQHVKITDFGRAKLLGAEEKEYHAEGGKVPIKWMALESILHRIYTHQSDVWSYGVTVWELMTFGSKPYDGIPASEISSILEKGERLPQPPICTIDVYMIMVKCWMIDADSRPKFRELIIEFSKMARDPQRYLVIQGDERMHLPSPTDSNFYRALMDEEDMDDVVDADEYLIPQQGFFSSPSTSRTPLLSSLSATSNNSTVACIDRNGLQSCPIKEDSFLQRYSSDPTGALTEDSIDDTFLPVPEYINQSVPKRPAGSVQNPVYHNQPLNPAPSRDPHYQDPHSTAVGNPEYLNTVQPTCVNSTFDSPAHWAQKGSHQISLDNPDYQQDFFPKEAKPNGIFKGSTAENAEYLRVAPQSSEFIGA
T2 sequence (P00533 25-1210 T790M/L858R): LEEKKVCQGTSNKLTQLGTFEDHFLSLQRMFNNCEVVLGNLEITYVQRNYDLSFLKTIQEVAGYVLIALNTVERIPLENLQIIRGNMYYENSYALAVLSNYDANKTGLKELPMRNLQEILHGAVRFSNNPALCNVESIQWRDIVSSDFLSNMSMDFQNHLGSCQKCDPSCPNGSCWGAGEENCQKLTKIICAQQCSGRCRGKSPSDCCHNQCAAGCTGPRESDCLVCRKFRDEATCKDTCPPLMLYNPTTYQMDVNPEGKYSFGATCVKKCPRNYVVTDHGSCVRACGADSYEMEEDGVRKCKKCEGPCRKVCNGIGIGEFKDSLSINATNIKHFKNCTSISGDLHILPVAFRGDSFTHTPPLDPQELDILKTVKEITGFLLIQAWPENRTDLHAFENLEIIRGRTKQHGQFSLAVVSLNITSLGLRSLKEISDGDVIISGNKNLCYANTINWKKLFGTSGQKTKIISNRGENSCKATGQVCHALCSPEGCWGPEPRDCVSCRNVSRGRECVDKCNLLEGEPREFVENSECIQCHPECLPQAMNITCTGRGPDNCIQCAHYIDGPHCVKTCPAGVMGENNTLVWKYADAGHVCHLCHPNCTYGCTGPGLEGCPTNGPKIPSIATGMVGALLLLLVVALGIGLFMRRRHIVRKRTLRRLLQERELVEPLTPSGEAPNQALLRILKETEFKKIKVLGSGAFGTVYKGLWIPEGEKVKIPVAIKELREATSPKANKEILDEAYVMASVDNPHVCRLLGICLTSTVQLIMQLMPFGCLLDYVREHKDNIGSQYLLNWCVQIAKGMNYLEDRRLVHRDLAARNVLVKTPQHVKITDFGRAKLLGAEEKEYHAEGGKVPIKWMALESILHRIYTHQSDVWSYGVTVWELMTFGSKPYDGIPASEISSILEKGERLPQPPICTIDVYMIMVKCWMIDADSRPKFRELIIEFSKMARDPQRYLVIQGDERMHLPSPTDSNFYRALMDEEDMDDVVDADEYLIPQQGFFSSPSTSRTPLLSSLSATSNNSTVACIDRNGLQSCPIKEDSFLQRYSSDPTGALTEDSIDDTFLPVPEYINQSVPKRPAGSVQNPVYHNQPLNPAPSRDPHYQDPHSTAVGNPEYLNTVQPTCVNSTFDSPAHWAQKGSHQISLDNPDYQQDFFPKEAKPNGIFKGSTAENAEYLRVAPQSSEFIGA
T3 sequence (P00533 25-1210 L858R): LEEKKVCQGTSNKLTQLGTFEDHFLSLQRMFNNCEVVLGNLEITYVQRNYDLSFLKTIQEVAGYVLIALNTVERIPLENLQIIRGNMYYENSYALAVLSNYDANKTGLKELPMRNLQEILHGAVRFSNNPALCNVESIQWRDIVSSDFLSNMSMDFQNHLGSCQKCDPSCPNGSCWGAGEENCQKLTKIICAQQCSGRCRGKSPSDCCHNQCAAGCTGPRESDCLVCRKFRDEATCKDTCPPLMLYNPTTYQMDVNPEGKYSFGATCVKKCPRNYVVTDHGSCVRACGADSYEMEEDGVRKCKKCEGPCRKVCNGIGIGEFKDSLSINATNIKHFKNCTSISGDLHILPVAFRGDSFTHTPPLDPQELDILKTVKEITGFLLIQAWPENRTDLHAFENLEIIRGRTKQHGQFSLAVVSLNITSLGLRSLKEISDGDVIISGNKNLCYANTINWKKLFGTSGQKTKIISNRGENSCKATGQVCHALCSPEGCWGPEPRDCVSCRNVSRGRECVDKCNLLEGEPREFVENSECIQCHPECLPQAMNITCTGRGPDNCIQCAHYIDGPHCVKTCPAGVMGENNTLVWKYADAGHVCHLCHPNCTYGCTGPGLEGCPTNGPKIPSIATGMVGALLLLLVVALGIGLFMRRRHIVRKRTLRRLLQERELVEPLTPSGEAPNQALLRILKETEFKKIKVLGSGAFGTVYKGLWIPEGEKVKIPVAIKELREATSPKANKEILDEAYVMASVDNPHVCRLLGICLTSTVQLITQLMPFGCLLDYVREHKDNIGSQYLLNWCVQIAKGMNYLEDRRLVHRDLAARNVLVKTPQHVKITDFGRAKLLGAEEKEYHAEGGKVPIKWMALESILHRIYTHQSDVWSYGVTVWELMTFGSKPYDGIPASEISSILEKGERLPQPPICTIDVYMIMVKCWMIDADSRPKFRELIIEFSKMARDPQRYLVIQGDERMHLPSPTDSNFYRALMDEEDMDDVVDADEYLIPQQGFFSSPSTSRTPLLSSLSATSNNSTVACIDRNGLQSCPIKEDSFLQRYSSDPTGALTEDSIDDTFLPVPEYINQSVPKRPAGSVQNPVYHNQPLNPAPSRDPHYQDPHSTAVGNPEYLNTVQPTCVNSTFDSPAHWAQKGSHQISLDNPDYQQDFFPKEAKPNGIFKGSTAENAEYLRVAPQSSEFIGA

Compound	IC50 [1] [nM]	IC50 [2] [nM]	IC50 [3] [nM]	IC50 [4] [nM]	IC50 [5] [nM]	IC50 [6] [nM]
CCc1cc(Nc2ncc(Cl)c(Nc3ccc4nccnc4c3N(C)S(=O)(=O)C3CC3)n2)c(OC(F)(F)F)cc1N1CCC(N2CCN(C)CC2)CC1 [Compound I-121]	50 to 500	50 to 500	50 to 500	50 to 500	50 to 500	50 to 500
CCc1cc(Nc2ncc(Cl)c(Nc3ccc4nccnc4c3N(C)S(=O)(=O)C3CC3)n2)c(OC)cc1N1CCC(N(C)C)C1 (stereo not drawn) [Compound I-123]	50 to 500	≤ 50	50 to 500	50 to 500	50 to 500	≤ 50
COc1cc(N2CCC(N3CCN(C)CC3)CC2)c(C)cc1Nc1ncc(Br)c(Nc2ccc3nccnc3c2N(C)S(=O)(=O)C(F)(F)F)n1 [Compound I-124]	500 to 2500	50 to 500	500 to 2500	50 to 500	50 to 500	≤ 50
CCc1cc(Nc2ncc(Br)c(Nc3ccc4nccnc4c3N(C)S(=O)(=O)C(F)(F)F)n2)c(OC)cc1N1CCC(N2CCN(C)CC2)CC1 [Compound I-125]	500 to 2500	50 to 500	50 to 500	50 to 500	50 to 500	≤ 50
CCc1cc(Nc2ncc(Br)c(Nc3ccc4nccnc4c3N(C)S(=O)(=O)C(F)(F)F)n2)c(OC(F)(F)F)cc1N1CCC(N2CCN(C)CC2)CC1 [Compound I-126]	500 to 2500	500 to 2500	500 to 2500	50 to 500	50 to 500	50 to 500
CCc1cc(Nc2ncc(Br)c(Nc3ccc4nccnc4c3N(C)S(=O)(=O)C(F)(F)F)n2)c(OC)cc1N1CCC(N(C)C)CC1 [Compound I-127]	500 to 2500	50 to 500	500 to 2500	50 to 500	50 to 500	≤ 50
CCc1cc(Nc2ncc(Br)c(Nc3ccc4nccnc4c3N(C)S(=O)(=O)C(F)(F)F)n2)c(OC)cc1N1CCC(N(C)C)C1 (stereo not drawn) [Compound I-128]	500 to 2500	50 to 500	500 to 2500	50 to 500	50 to 500	≤ 50
COc1cc(N2CCC(N3CCN(C)CC3)CC2)c(C)cc1Nc1ncc(Cl)c(Nc2ccc3nccnc3c2N(C)S(=O)(=O)C(F)(F)F)n1 [Compound I-129]	500 to 2500	500 to 2500	500 to 2500	50 to 500	50 to 500	50 to 500
CCc1cc(Nc2ncc(Cl)c(Nc3ccc4nccnc4c3N(C)S(=O)(=O)C(F)(F)F)n2)c(OC)cc1N1CCC(N2CCN(C)CC2)CC1 [Compound I-130]	50 to 500	50 to 500	50 to 500	≤ 50	50 to 500	50 to 500
CCc1cc(Nc2ncc(Cl)c(Nc3ccc4nccnc4c3N(C)S(=O)(=O)C(F)(F)F)n2)c(OC(F)(F)F)cc1N1CCC(N2CCN(C)CC2)CC1 [Compound I-131]	500 to 2500	500 to 2500	500 to 2500	50 to 500	50 to 500	50 to 500
CCc1cc(Nc2ncc(Cl)c(Nc3ccc4nccnc4c3N(C)S(=O)(=O)C(F)(F)F)n2)c(OC)cc1N1CCC(N(C)C)CC1 [Compound I-132]	500 to 2500	50 to 500	500 to 2500	50 to 500	50 to 500	≤ 50
CCc1cc(Nc2ncc(Cl)c(Nc3ccc4nccnc4c3N(C)S(=O)(=O)C(F)(F)F)n2)c(OC)cc1N1CCC(N(C)C)C1 (stereo not drawn) [Compound I-133]	500 to 2500	50 to 500	500 to 2500	50 to 500	50 to 500	≤ 50
COc1cc(N2CCC(N3CCN(C)CC3)CC2)c(C)cc1Nc1ncc(Br)c(Nc2ccc3nccnc3c2N(C)S(=O)(=O)C(C)C)n1 [Compound I-134]	50 to 500	≤ 50	50 to 500	≤ 50	≤ 50	≤ 50

The remaining lines, values ahead:

IC50 [1] [nM]	IC50 [2] [nM]	IC50 [3] [nM]	IC50 [4] [nM]	IC50 [5] [nM]	IC50 [6] [nM]	Compound
≤ 50	≤ 50	≤ 50	≤ 50	≤ 50	≤ 50	CCc1cc(Nc2ncc(Cl)c(Nc3ccc4nccnc4c3N(CC)S(C)(=O)=O)n2)c(OC)cc1N1CCC(N2CCN(C)CC2)CC1 [Compound I-110]
50 to 500	≤ 50	50 to 500	50 to 500	50 to 500	≤ 50	CCc1cc(Nc2ncc(Cl)c(Nc3ccc4nccnc4c3N(CC)S(C)(=O)=O)n2)c(OC(F)(F)F)cc1N1CCC(N2CCN(C)CC2)CC1 [Compound I-111]
≤ 50	≤ 50	≤ 50	≤ 50	≤ 50	≤ 50	CCc1cc(Nc2ncc(Cl)c(Nc3ccc4nccnc4c3N(CC)S(C)(=O)=O)n2)c(OC)cc1N1CCC(N(C)C)CC1 [Compound I-112]
50 to 500	≤ 50	≤ 50	≤ 50	≤ 50	≤ 50	CCc1cc(Nc2ncc(Cl)c(Nc3ccc4nccnc4c3N(CC)S(C)(=O)=O)n2)c(OC)cc1N1CCC(N(C)C)C1 (stereo not drawn) [Compound I-113]
≤ 50	≤ 50	≤ 50	≤ 50	≤ 50	≤ 50	CCS(=O)(=O)N(C)c1c(Nc2nc(Nc3cc(C)c(N4CCC(N5CCN(C)CC5)CC4)cc3OC)ncc2Cl)ccc2nccnc12 [Compound I-114]
≤ 50	≤ 50	≤ 50	≤ 50	≤ 50	≤ 50	CCc1cc(Nc2ncc(Cl)c(Nc3ccc4nccnc4c3N(C)S(=O)(=O)CC)n2)c(OC)cc1N1CCC(N2CCN(C)CC2)CC1 [Compound I-115]
50 to 500	50 to 500	50 to 500	50 to 500	50 to 500	≤ 50	CCc1cc(Nc2ncc(Cl)c(Nc3ccc4nccnc4c3N(C)S(=O)(=O)CC)n2)c(OC(F)(F)F)cc1N1CCC(N2CCN(C)CC2)CC1 [Compound I-116]
≤ 50	≤ 50	≤ 50	≤ 50	≤ 50	≤ 50	CCc1cc(Nc2ncc(Cl)c(Nc3ccc4nccnc4c3N(C)S(=O)(=O)CC)n2)c(OC)cc1N1CCC(N(C)C)CC1 [Compound I-117]
≤ 50	≤ 50	≤ 50	≤ 50	≤ 50	≤ 50	CCc1cc(Nc2ncc(Cl)c(Nc3ccc4nccnc4c3N(C)S(=O)(=O)CC)n2)c(OC)cc1N1CCC(N(C)C)C1 (stereo not drawn) [Compound I-118]
≤ 50	≤ 50	≤ 50	≤ 50	≤ 50	≤ 50	CCc1cc(Nc2ncc(Cl)c(Nc3ccc4nccnc4c3N(C)S(=O)(=O)C3CC3)n2)c(OC)cc1N1CCC(N2CCN(C)CC2)CC1 [Compound I-120]
≤ 50	≤ 50	≤ 50	≤ 50	≤ 50	≤ 50	CCc1cc(Nc2ncc(Cl)c(Nc3ccc4nccnc4c3N(C)S(=O)(=O)C3CC3)n2)c(OC)cc1N1CCC(N(C)C)CC1 [Compound I-122]
